Data published in ChEMBL document CHEMBL1124789, “Angiotensin-converting enzyme inhibitors. 9. Novel [[N-(1-carboxy-3-phenylpropyl)amino]acyl]glycine derivatives with diuretic activity” (J Med Chem, 1990).
Active and inactive are the calls of the source. The calls are words filed in the database; no cut-off is given here.

How the values were obtained:
[1] = target: T1, Angiotensin-converting enzyme (Rattus norvegicus) (UniProt P47820); assay: Inhibition of Angiotensin I converting enzyme(ACE) at the dose of 100 mg/kg (po) in rat; assay type: organism-based; design: dose 100 mg/kg
T1 sequence (whole entry): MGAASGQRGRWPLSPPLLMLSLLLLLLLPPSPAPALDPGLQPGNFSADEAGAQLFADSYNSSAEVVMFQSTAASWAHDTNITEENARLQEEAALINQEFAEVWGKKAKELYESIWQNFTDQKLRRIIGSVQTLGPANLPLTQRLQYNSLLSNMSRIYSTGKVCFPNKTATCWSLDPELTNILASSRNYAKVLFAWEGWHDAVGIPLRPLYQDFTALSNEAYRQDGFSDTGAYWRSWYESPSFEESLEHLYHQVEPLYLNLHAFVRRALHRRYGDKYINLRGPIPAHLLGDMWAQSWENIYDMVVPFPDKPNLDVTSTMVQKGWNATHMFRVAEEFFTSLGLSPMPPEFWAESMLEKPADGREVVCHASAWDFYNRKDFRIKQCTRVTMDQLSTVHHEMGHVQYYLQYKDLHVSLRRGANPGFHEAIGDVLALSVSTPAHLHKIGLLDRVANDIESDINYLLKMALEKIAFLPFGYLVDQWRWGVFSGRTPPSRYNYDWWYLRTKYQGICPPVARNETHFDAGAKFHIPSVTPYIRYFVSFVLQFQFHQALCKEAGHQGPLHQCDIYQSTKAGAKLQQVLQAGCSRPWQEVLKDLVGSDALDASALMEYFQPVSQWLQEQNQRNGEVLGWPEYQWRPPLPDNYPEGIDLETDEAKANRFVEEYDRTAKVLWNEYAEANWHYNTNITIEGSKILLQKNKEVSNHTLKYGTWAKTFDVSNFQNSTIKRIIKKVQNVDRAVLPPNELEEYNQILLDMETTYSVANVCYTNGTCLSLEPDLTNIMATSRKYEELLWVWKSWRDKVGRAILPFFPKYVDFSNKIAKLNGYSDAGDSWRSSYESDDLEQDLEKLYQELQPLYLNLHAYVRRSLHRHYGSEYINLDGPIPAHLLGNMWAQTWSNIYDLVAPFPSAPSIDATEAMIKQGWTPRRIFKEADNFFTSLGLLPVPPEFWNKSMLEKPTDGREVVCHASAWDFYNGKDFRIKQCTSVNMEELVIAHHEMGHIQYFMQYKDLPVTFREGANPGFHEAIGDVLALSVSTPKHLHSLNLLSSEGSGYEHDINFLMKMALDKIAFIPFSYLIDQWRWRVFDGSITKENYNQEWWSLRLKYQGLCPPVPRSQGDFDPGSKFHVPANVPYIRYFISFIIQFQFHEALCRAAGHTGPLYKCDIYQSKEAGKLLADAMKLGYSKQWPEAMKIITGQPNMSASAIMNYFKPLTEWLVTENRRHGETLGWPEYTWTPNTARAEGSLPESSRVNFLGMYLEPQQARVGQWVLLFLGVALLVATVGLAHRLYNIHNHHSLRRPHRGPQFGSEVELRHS

[2] = tested on: Rattus norvegicus; assay: Diuretic activity (ip);NI- No increase; assay type: functional, organism-based; settings: Urine
[3] = target: T1, Angiotensin-converting enzyme (Rattus norvegicus); assay: Inhibition of Angiotensin I converting enzyme(ACE) at the dose of 100 mg/kg (ip) in rat; assay type: organism-based; design: dose 100 mg/kg
[4] = target: T2, Angiotensin-converting enzyme (Rattus norvegicus, UniProt P47820); assay: In vitro inhibitory activity against Angiotensin I converting enzyme(ACE)
T2 sequence (P47820 whole entry): T1 sequence (whole entry)

[5] = organism: Rattus norvegicus; assay: Duration of action on ACE in rat; assay type: functional
[6] = target: T1, Angiotensin-converting enzyme (Rattus norvegicus); assay: Inhibition of Angiotensin I converting enzyme(ACE) at the dose of 30 mg/kg (po) in rat; assay type: organism-based; design: dose 30 mg/kg
[7] = target: T1, Angiotensin-converting enzyme (Rattus norvegicus); assay: Inhibition of Angiotensin I converting enzyme(ACE) at the dose of 10 mg/kg (po) in rat; assay type: organism-based; design: dose 10 mg/kg
[8] = tested on: Rattus norvegicus; assay: Diuretic activity (ip); NI-No Increase; assay type: functional, organism-based; settings: Urine
[9] = tested on: Rattus norvegicus; assay: Diuretic activity (po);NI- No increase; assay type: functional, organism-based; settings: Urine
[10] = target: T1, Angiotensin-converting enzyme (Rattus norvegicus); assay: (§1) In vitro inhibitory activity against Angiotensin I converting enzyme (ACE); settings: concentration not given here
[11] = target: T1, Angiotensin-converting enzyme (Rattus norvegicus); assay: Inhibition of Angiotensin I converting enzyme(ACE) at the dose of 10 mg/kg (ip) in rat; assay type: organism-based; design: dose 10 mg/kg; scale not given: the % may be the effect or the level left
[12] = tested on: Rattus norvegicus; assay: Diuretic activity (po); NI-No Increase; assay type: functional, organism-based; settings: Urine
[13] = target: T1, Angiotensin-converting enzyme (Rattus norvegicus); assay: Inhibition of Angiotensin I converting enzyme(ACE) at the dose of 30 mg/kg (ip) in rat; assay type: organism-based; design: dose 30 mg/kg; scale not given: the % may be the effect or the level left
[14] = tested on: Canis familiaris; assay: Maximum percent decrease in blood pressure at the dose of 100 mg/kg ip; assay type: functional, Canis lupus familiaris; settings: route intraperitoneal
[15] = target: Angiotensin-converting enzyme (Homo sapiens) (UniProt P12821); assay: Inhibition of Angiotensin I converting enzyme(ACE) at the dose of 100 mg/kg (ip) in dog; assay type: organism-based; design: dose 100 mg/kg; settings: Canis lupus familiaris; target entry is the homologue from another species
Sequence of Angiotensin-converting enzyme (Homo sapiens) (P12821 whole entry): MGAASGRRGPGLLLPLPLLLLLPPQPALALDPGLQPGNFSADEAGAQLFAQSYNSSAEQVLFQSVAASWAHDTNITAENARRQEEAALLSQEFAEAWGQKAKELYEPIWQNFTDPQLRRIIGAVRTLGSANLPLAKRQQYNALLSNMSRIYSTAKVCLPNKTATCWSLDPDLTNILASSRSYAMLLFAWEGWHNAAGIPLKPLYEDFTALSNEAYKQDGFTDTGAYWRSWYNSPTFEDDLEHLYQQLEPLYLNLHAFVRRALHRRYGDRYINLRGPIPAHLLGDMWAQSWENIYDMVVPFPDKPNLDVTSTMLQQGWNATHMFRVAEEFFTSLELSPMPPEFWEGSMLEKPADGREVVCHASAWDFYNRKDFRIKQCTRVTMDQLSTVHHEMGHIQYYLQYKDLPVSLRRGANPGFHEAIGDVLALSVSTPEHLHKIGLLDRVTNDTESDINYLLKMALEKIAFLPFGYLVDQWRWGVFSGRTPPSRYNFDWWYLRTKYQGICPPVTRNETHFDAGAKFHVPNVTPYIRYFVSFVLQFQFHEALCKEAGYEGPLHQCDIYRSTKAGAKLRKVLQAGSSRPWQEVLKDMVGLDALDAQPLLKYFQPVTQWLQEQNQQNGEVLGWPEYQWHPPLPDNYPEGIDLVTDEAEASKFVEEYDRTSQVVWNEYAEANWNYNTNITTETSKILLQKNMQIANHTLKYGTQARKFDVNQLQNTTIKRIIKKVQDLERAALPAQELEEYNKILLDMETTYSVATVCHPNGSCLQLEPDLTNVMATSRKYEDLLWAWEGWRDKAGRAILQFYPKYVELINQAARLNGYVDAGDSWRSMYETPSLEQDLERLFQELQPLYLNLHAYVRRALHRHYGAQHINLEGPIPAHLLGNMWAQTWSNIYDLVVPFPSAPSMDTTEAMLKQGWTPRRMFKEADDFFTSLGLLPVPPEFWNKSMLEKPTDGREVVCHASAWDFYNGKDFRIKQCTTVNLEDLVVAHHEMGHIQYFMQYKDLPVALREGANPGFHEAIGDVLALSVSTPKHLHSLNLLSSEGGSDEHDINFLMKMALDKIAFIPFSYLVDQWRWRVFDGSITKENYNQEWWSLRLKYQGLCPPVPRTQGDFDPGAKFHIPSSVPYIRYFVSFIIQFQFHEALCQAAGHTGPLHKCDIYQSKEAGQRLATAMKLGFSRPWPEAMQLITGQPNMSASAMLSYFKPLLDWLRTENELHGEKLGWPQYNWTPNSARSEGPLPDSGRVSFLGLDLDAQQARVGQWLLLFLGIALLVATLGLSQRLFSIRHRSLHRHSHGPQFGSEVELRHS

[16] = tested on: Rattus norvegicus; assay: Diuretic activity (po); ND-Natriuresis&diuresis; assay type: functional, organism-based; settings: Urine
[17] = tested on: Canis familiaris; assay: Diuretic activity (po) in dog; NI-No Increase; assay type: functional, organism-based; settings: Canis lupus familiaris; Urine
[18] = tested on: Rattus norvegicus; assay: Diuretic activity (po); N-Natriuresis; assay type: functional, organism-based; settings: Urine
[19] = tested on: Canis familiaris; assay: Diuretic activity (ip) was tested in dogs; assay type: functional, organism-based; settings: Canis lupus familiaris; Urine
[20] = tested on: Canis familiaris; assay: Diuretic activity (po) in dog; ND-Natriuresis&diuresis; assay type: functional, organism-based; settings: Canis lupus familiaris; Urine
[21] = tested on: Rattus norvegicus; assay: Diuretic activity (po);ND- Natriuresis and diuresis; assay type: functional, organism-based; settings: Urine
[22] = tested on: Rattus norvegicus; assay: Diuretic activity (po);NI-No increase; assay type: functional, organism-based; settings: Urine
[23] = target: T2, Angiotensin-converting enzyme; assay: as §1

Row | ACE inhibition [1] [%] | ACE inhibition [3] [%] | IC50 [4] [µM] | ACE inhibition [6] [%] | ACE inhibition [7] [%] | SMILES | Duration [5] [h] | also measured
1 | < 30 | 80 | 22 | – | – | CCOC(=O)c1cc(S(N)(=O)=O)c(NCCCC[C@H](C(=O)O)N(Cc2ccccc2)C(=O)[C@H](C)N[C@@H](CCc2ccccc2)C(=O)OCC)cc1Cl.Cl | 3 | Activity [2]: No increase
2 | 80 | – | 3.5 | – | – | C[C@H](N[C@@H](CCc1ccccc1)C(=O)O)C(=O)N(CC(=O)O)C1CCC2(CC1)Nc1cc(Cl)c(S(N)(=O)=O)cc1S(=O)(=O)N2 (some centres undefined) | 3 | –
3 | 80 | – | 2.7 | < 30 | – | C[C@H](N[C@@H](CCc1ccccc1)C(=O)O)C(=O)N(CC(=O)O)[C@H](C)C1Nc2cc(Cl)c(S(N)(=O)=O)cc2S(=O)(=O)N1 (some centres undefined) | 3 | –
4 | 80 | 100 | 28 | 80 | 50 | CCOC(=O)c1cc(S(N)(=O)=O)c(Cl)cc1NCCCC[C@H](C(=O)O)N(Cc1ccccc1)C(=O)[C@H](C)N[C@@H](CCc1ccccc1)C(=O)OCC.Cl | <1 | Activity [8]: No increase
5 | – | – | – | – | < 30 | CCOC(=O)[C@H](CCc1ccccc1)N[C@@H](C)C(=O)N(CC(=O)O)[C@H](CC(C)C)C1Nc2cc(Cl)c(S(N)(=O)=O)cc2S(=O)(=O)N1.Cl (some centres undefined) | <1 | Activity [9]: No increase; inhibition [10]: < 20%; Activity [11]: 50%
6 | < 30 | 80 | 80 | – | – | CCOC(=O)[C@H](CCc1ccccc1)N[C@@H](C)C(=O)N(CC(=O)O)Cc1cc(C(C)(C)C)cc(I)c1O | – | Activity [8]: No increase
7 | – | – | 0.68 | 50 | – | C[C@H](N[C@@H](CCc1ccccc1)C(=O)O)C(=O)N(Cc1ccccc1)[C@H](CCCCNc1cc(Cl)c(S(N)(=O)=O)cc1C(=O)O)C(=O)O.Cl | <1 | Activity [12]: No increase; Activity [13]: < 30%
8 | 80 | 100 | 38 | 50 | 50 | C[C@H](N[C@@H](CCc1ccccc1)C(=O)O)C(=O)N(CC(=O)O)CC1Nc2cc(Cl)c(S(N)(=O)=O)cc2S(=O)(=O)N1 (some centres undefined) | >3 | Decrease [14]: 21%; inhibition [15]: 100%; Activity [16]: Natriuresis and diuresis; Activity [17]: No increase
9 | – | – | 2.4 | – | 80 | C[C@H](N[C@@H](CCc1ccccc1)C(=O)O)C(=O)N(Cc1ccccc1)[C@H](CCCCNc1cc(Cl)c(C(=O)O)cc1S(N)(=O)=O)C(=O)O.Cl | 0 | Activity [18]: N
10 | – | – | – | – | – | C[C@H](CS)C(=O)N1CCC[C@H]1C(=O)O | – | Activity [19]: inactive
11 | 100 | 100 | 0.23 | 50 | 50 | C[C@H](N[C@@H](CCc1ccccc1)C(=O)O)C(=O)N(CCCC1Nc2cc(Cl)c(S(N)(=O)=O)cc2S(=O)(=O)N1)CC(=O)O.Cl (some centres undefined) | > 3 | Activity [20]: Natriuresis and diuresis; Decrease [14]: 14%; inhibition [15]: > 100%; Activity [21]: Natriuresis and diuresis
12 | 100 | – | – | – | 50 | CCOC(=O)[C@H](CCc1ccccc1)N[C@@H](CCCCNC(=O)c1ccc(Cl)c(S(N)(=O)=O)c1)C(=O)N(CC(=O)O)C1Cc2ccccc2C1.Cl | >3 | Activity [22]: No increase; IC50 [23]: 0.04 µM; Activity [11]: 100%
